Measurements published in patent US10058550B2, “Methods of treating heart failure” (priority 2015, dated 2018).

Each compound was assayed against human APJ receptor (Homo sapiens (Human), UniProt P35414) (assay: biochemical). Details: read-out: Activity hAPJ SPA EC50 IP.
Assay type: biochemical
In short: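 Agonist-stimulated [35S]GTPγS (0.2 nM) binding was read by SPA after 90 min at room temperature. Buffer: 20 mM HEPES pH 7.5 with 5 mM MgCl2, 200 mM NaCl, 3 μM GDP, 0.1% BSA; membranes were from a stable human APJ CHO line. EC50 values are averages of independent runs, fitted by non-linear regression.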

Chain of human APJ receptor (P35414 whole entry): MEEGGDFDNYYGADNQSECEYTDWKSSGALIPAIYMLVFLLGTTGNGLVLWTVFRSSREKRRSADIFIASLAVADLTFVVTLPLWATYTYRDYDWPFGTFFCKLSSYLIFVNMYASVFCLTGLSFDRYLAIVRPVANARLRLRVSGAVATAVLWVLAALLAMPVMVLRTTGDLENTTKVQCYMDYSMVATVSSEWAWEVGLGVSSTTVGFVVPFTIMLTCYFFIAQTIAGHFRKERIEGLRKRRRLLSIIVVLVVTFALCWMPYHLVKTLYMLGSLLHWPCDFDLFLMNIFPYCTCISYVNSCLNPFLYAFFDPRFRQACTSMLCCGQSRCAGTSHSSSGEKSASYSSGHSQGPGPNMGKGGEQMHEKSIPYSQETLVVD

Compound	EC50
CO[C@H](c1ncc(C)cn1)[C@H](C)S(=O)(=O)Nc1nnc(-c2cncc(C)c2)n1-c1c(Cl)cccc1Cl [Example 675.0, (1R,2S)-N-(4-(2,6-dichlorophenyl)-5-(5-methyl-3-pyridinyl)-4H-1,2,4-triazol-3-yl)-1-methoxy-1-(5-methyl-2-pyrimidinyl)-2-propanesulfonamide 2,2,2-trifluoroacetate]	2.6 nM
COc1cccc(-c2nnc(NS(=O)(=O)CCc3ncc(F)cn3)n2-c2c(OC)cccc2OC)n1 [Example 676.0, N-(4-(2,6-dimethoxyphenyl)-5-(6-methoxy-2-pyridinyl)-4H-1,2,4-triazol-3-yl)-2-(5-fluoro-2-pyrimidinyl)ethanesulfonamide 2,2,2-trifluoroacetate]	6 nM
CO[C@H](c1ncc(C)cn1)[C@H](C)S(=O)(=O)Nc1nnc(-c2cncc(C)c2)n1-c1c(F)cccc1F [Example 677.0, (1R,2S)-N-(4-(2,6-difluorophenyl)-5-(5-methylpyridin-3-yl)-4H-1,2,4-triazol-3-yl)-1-methoxy-1-(5-methylpyrimidin-2-yl)propane-2-sulfonamide 2,2,2-trifluoroacetate]	7.2 nM
COc1cnc([C@@H](C)[C@H](C)S(=O)(=O)Nc2nnc(-c3cncc(C)c3)n2-c2c(OC)cccc2OC)nc1 [Example 682.0, (2S,3R)-N-(4-(2,6-dimethoxyphenyl)-5-(5-methyl-3-pyridinyl)-4H-1,2,4-triazol-3-yl)-3-(5-methoxy-2-pyrimidinyl)-2-butanesulfonamide 2,2,2-trifluoroacetate]	0.2 nM
COc1cccc(-c2nnc(NS(=O)(=O)[C@@H](C)[C@H](OC)c3ncc(C)cn3)n2-c2c(F)cccc2F)n1 [Example 684.0, (1R,2S)-N-(4-(2,6-difluorophenyl)-5-(6-methoxy-2-pyridinyl)-4H-1,2,4-triazol-3-yl)-1-methoxy-1-(5-methyl-2-pyrimidinyl)-2-propanesulfonamide]	0.81 nM
COc1cnc([C@@H](OC)[C@@H](C)S(=O)(=O)Nc2nnc(-c3cncc(C)c3)n2-c2c(OC)cccc2OC)nc1 [Example 687.0, (1R,2R)-N-(4-(2,6-dimethoxyphenyl)-5-(5-methyl-3-pyridinyl)-4H-1,2,4-triazol-3-yl)-1-methoxy-1-(5-methoxy-2-pyrimidinyl)-2-propanesulfonamide 2,2,2-trifluoroacetate]	4.7 nM
COc1ncnc(OC)c1-n1c(NS(=O)(=O)[C@@H](C)[C@H](C)c2ncc(Cl)cn2)nnc1-c1cccnc1 [Example 709.0, (2S,3R)-3-(5-chloro-2-pyrimidinyl)-N-(4-(4,6-dimethoxy-5-pyrimidinyl)-5-(3-pyridinyl)-4H-1,2,4-triazol-3-yl)-2-butanesulfonamide]	0.71 nM
COc1cccc(-c2nnc(NS(=O)(=O)[C@@H](C)[C@H](C)c3ncc(Cl)cn3)n2-c2c(OC)ncnc2OC)n1 [Example 710.0, (2S,3R)-3-(5-chloro-2-pyrimidinyl)-N-(4-(4,6-dimethoxy-5-pyrimidinyl)-5-(6-methoxy-2-pyridinyl)-4H-1,2,4-triazol-3-yl)-2-butanesulfonamide]	0.21 nM
COc1cccc(OC)c1-n1c(NS(=O)(=O)[C@@H](C)[C@@H](OC(C)C)c2ncc(C)cn2)nnc1-c1cccc(C)n1 [Example 738.0, (1S,2S)-N-(4-(2,6-dimethoxyphenyl)-5-(6-methylpyridin-2-yl)-4H-1,2,4-triazol-3-yl)-1-isopropoxy-1-(5-methylpyrimidin-2-yl)propane-2-sulfonamide]	0.1 nM
COc1cccc(OC)c1-n1c(NS(=O)(=O)[C@@H](C)[C@H](OC)c2ncc(C3=CCOCC3)cn2)nnc1-c1cncc(C)c1 [Example 749.0, (1R,2S)-1-(5-(3,6-dihydro-2H-pyran-4-yl)pyrimidin-2-yl)-N-(4-(2,6-dimethoxyphenyl)-5-(5-methylpyridin-3-yl)-4H-1,2,4-triazol-3-yl)-1-methoxypropane-2-sulfonamide]	15 nM
COc1cccc(OC)c1-n1c(NS(=O)(=O)[C@@H](C)[C@H](OC)c2ncc(-c3cccnc3)cn2)nnc1-c1cncc(C)c1 [Example 752.0, (1R,2S)—N-(4-(2,6-dimethoxyphenyl)-5-(5-methylpyridin-3-yl)-4H-1,2,4-triazol-3-yl)-1-methoxy-1-(5-(pyridin-3-yl)pyrimidin-2-yl)propane-2-sulfonamide]	3.6 nM
Cc1cnc([C@@H](C)[C@H](C)S(=O)(=O)Nc2nnc(-c3cncc(C)c3)n2-c2c(OC(F)F)cccc2OC(F)F)nc1 [Example 763.0, (2S,3R)—N-(4-(2,6-bis(difluoromethoxy)phenyl)-5-(5-methylpyridin-3-yl)-4H-1,2,4-triazol-3-yl)-3-(5-methylpyrimidin-2-yl)butane-2-sulfonamide]	0.71 nM
COc1ncnc(OC)c1-n1c(NS(=O)(=O)[C@@H](C)[C@H](C)c2cnc(C)cn2)nnc1-c1ccccn1 [Example 773.0, (2S,3R)-N-(4-(4,6-dimethoxy-5-pyrimidinyl)-5-(2-pyridinyl)-4H-1,2,4-triazol-3-yl)-3-(5-methyl-2-pyrazinyl)-2-butanesulfonamide]	14 nM
COc1cccc(OC)c1-n1c(NS(=O)(=O)[C@@H](C)[C@H](C)c2cnc(C)cn2)nnc1-c1ccccn1 [Example 774.0, (2S,3R)-N-(4-(2,6-dimethoxyphenyl)-5-(2-pyridinyl)-4H-1,2,4-triazol-3-yl)-3-(5-methyl-2-pyrazinyl)-2-butanesulfonamide]	8.2 nM
COc1cccc(OC)c1-n1c(NS(=O)(=O)[C@@H](C)[C@H](C)c2ncc(C)cn2)nnc1-c1ccccn1 [Example 775.0, (2S,3R)-N-(4-(2,6-dimethoxyphenyl)-5-(2-pyridinyl)-4H-1,2,4-triazol-3-yl)-3-(5-methyl-2-pyrimidinyl)-2-butanesulfonamide]	2.1 nM
COc1ncnc(OC)c1-n1c(NS(=O)(=O)[C@@H](C)[C@H](C)c2ncc(C)cn2)nnc1-c1ccccn1 [Example 776.0, (2S,3R)-N-(4-(4,6-dimethoxy-5-pyrimidinyl)-5-(2-pyridinyl)-4H-1,2,4-triazol-3-yl)-3-(5-methyl-2-pyrimidinyl)-2-butanesulfonamide]	3.9 nM
COc1ncnc(OC)c1-n1c(NS(=O)(=O)[C@@H](C)[C@@H](OC(C)C)c2ncc(C)cn2)nnc1-c1ccccn1 [Example 777.0, (1S,2S)-N-(4-(4,6-dimethoxy-5-pyrimidinyl)-5-(2-pyridinyl)-4H-1,2,4-triazol-3-yl)-1-(1-methylethoxy)-1-(5-methyl-2-pyrimidinyl)-2-propanesulfonamide]	2.2 nM
COc1cccc(OC)c1-n1c(NS(=O)(=O)[C@@H](C)[C@@H](OC(C)C)c2ncc(C)cn2)nnc1-c1ccccn1 [Example 778.0, (1S,2S)-N-(4-(2,6-dimethoxyphenyl)-5-(2-pyridinyl)-4H-1,2,4-triazol-3-yl)-1-(1-methylethoxy)-1-(5-methyl-2-pyrimidinyl)-2-propanesulfonamide]	0.77 nM
COc1ncnc(OC)c1-n1c(NS(=O)(=O)[C@@H](C)[C@H](OC)c2cnc(C)cn2)nnc1-c1ccccn1 [Example 779.0, (1R,2S)-N-(4-(4,6-dimethoxy-5-pyrimidinyl)-5-(2-pyridinyl)-4H-1,2,4-triazol-3-yl)-1-methoxy-1-(5-methyl-2-pyrazinyl)-2-propanesulfonamide]	17 nM
COc1cccc(OC)c1-n1c(NS(=O)(=O)[C@@H](C)[C@H](OC)c2cnc(C)cn2)nnc1-c1ccccn1 [Example 780.0, (1R,2S)-N-(4-(2,6-dimethoxyphenyl)-5-(2-pyridinyl)-4H-1,2,4-triazol-3-yl)-1-methoxy-1-(5-methyl-2-pyrazinyl)-2-propanesulfonamide]	8.8 nM
Cc1cnc([C@@H](C)[C@H](C)S(=O)(=O)Nc2nnc(-c3cccc(C)n3)n2-c2c(F)cccc2F)nc1 [Example 783.0, (2S,3R)-N-(4-(2,6-difluorophenyl)-5-(6-methyl-2-pyridinyl)-4H-1,2,4-triazol-3-yl)-3-(5-methyl-2-pyrimidinyl)-2-butanesulfonamide]	4.2 nM
COc1cccc(-c2nnc(NS(=O)(=O)[C@@H](C)[C@H](C)c3ncc(C)cn3)n2-c2c(F)cccc2F)n1 [Example 784.0, (2S,3R)-N-(4-(2,6-difluorophenyl)-5-(6-methoxy-2-pyridinyl)-4H-1,2,4-triazol-3-yl)-3-(5-methyl-2-pyrimidinyl)-2-butanesulfonamide]	0.4 nM
Cc1cnc([C@@H](C)[C@H](C)S(=O)(=O)Nc2nnc(-c3ccccn3)n2-c2c(F)cccc2F)nc1 [Example 785.0, (2S,3R)-N-(4-(2,6-difluorophenyl)-5-(2-pyridinyl)-4H-1,2,4-triazol-3-yl)-3-(5-methyl-2-pyrimidinyl)-2-butanesulfonamide]	4.9 nM
COc1cccc(-c2nnc(NS(=O)(=O)[C@@H](C)[C@H](C)c3ncc(Cl)cn3)n2-c2c(F)cccc2F)n1 [Example 786.0, (2S,3R)-3-(5-chloro-2-pyrimidinyl)-N-(4-(2,6-difluorophenyl)-5-(6-methoxy-2-pyridinyl)-4H-1,2,4-triazol-3-yl)-2-butanesulfonamide]	0.16 nM
Cc1cccc(-c2nnc(NS(=O)(=O)[C@@H](C)[C@H](C)c3ncc(Cl)cn3)n2-c2c(F)cccc2F)n1 [Example 788.0, (2S,3R)-3-(5-chloro-2-pyrimidinyl)-N-(4-(2,6-difluorophenyl)-5-(6-methyl-2-pyridinyl)-4H-1,2,4-triazol-3-yl)-2-butanesulfonamide]	0.84 nM
COc1cccc(-c2nnc(NS(=O)(=O)[C@@H](C)[C@H](C)c3cnc(C)cn3)n2-c2c(F)cccc2F)n1 [Example 789.0, (2S,3R)-N-(4-(2,6-difluorophenyl)-5-(6-methoxy-2-pyridinyl)-4H-1,2,4-triazol-3-yl)-3-(5-methyl-2-pyrazinyl)-2-butanesulfonamide]	1.9 nM
Cc1cnc([C@@H](C)[C@H](C)S(=O)(=O)Nc2nnc(-c3cccc(C)n3)n2-c2c(F)cccc2F)cn1 [Example 790.0, (2S,3R)-N-(4-(2,6-difluorophenyl)-5-(6-methyl-2-pyridinyl)-4H-1,2,4-triazol-3-yl)-3-(5-methyl-2-pyrazinyl)-2-butanesulfonamide]	20 nM
